Legend:
Type in all cases: cell-based
[1] = test system: E. coli ATCC 25922; assay: Copper oxychloride dilution test
Procedure: (§1) Additionally, a dilution test was performed using a 250,000 ppm ([…]) stock solution of copper oxychloride. A gradient was prepared using aliquots from 2,500 ppm to 100,000 ppm. A 3×10^5 CFU/mL bacterial culture of S. aureus ATCC 6538 and a 1.25×10^6 CFU/mL culture of E. coli ATCC 25922 were added to each solution.

[2] = test system: S. aureus ATCC 6538; assay: Copper oxychloride dilution test; settings: 5,000 ppm
Procedure: as §1

[3] = test system: E. coli ATCC 25922; assay: Copper oxychloride agar diffusion test; settings: 4,250-125,000 ppm tested, 37° C., 24 hours
Procedure: (§2) An agar diffusion test was conducted for E. coli ATCC 25922 and S. aureus ATCC 6538 cultures. Copper oxychloride was added at different concentrations (4,250 ppm, 8,500 ppm, 17,000 ppm, 32,000 ppm, 60,000 ppm, 125,000 ppm).

[4] = test system: S. aureus ATCC 6538; assay: Copper oxychloride agar diffusion test; settings: 4,250-125,000 ppm tested, 37° C., 24 hours
Procedure: as §2

[5] = repeated test, 5,000 ppm (bacterium not named)

[Cl-].[Cu+2].[Cu+2].[OH-].[OH-].[OH-] [copper oxychloride]
% Efficiency ([1]; 2,500 ppm): 96.0%
bacterial growth ([1]; 2,500 ppm): still grew
Final Count ([1]; 2,500 ppm, initial count 1.25 × 10^6 CFU/mL): 5 × 10^4 CFU/mL
bacteria eliminated [1, 5]: 99.9%
bacterial growth [1, 5]: no bacterial growth was observed
% Efficiency [2]: 99.9%
bacterial growth [2]: no growth
Final Count ([2]; initial count 3 × 10^5 CFU/mL): 2 × 10^2 CFU/mL
concentration at which zones of growth inhibition were observed [3]: 17,000 ppm
concentration at which zones of growth inhibition were observed [4]: 17,000 ppm

From US20260041098A1, “POLYMERIC BATCH TO PREPARE AN ANTIMICROBIAL MATERIAL AND AIR FILTER” (IMPORTADORA Y EXPORTADORA JCN LIMITADA, priority 2021, published 2026)
